Measurements as given in ChEMBL document CHEMBL4689842, “EUbOPEN Chemogenomics Library wave 1” (2021).

Columns and labels:
Format in all cases: toxicity, cell-based
[1] = tested on: HEK-293T; assay: Incucyte cell viability with HEK293T; details: human, 10 µM, compound concentration 10 uM
[2] = tested on: U2OS; assay: Incucyte cell viability with U2OS; details: human, 10 µM, compound concentration 10 uM
[3] = tested on: Fibroblast; assay: Incucyte cell viability with human fibroblast; details: 10 µM, compound concentration 10 uM
[4] = 0 h, replicate number 1, timepoint 0 hours
[5] = 0 h, replicate number 2, timepoint 0 hours
[6] = 6 h, replicate number 1, timepoint 6 hours
[7] = 12 h, replicate number 1, timepoint 12 hours
[8] = 18 h, replicate number 1, timepoint 18 hours
[9] = 24 h, replicate number 1, timepoint 24 hours
[10] = 6 h, replicate number 2, timepoint 6 hours
[11] = 24 h, replicate number 2, timepoint 24 hours
[12] = 18 h, replicate number 2, timepoint 18 hours
[13] = 12 h, replicate number 2, timepoint 12 hours
Further: filed as whole numbers so only -1 and 0 and 1 occur.

Compound | Growth Rate [1, 4] | Growth Rate [1, 6] | Growth Rate [1, 7] | Growth Rate [1, 8] | Growth Rate [1, 9] | Growth Rate [2, 4] | Growth Rate [2, 10] | Growth Rate [2, 7] | Growth Rate [2, 8] | Growth Rate [2, 9] | Growth Rate [3, 4] | Growth Rate [3, 6] | Growth Rate [3, 7] | Growth Rate [3, 8] | Growth Rate [3, 9] | Growth Rate [3, 11] | Growth Rate [2, 6] | Growth Rate [3, 10] | Growth Rate [3, 13] | Growth Rate [3, 12] | other results
Cc1cn2cc(CC(=O)N3CCC4(CC3)CN(Cc3ccc(-n5nccn5)cc3Cl)C4)nc2s1 | 1 | 0 | 0 | 0 | 0 | 0 | 0 | 1 | 1 | 1 | 1 | 0 | 0 | 0 | 1 | 0 |  |  |  |  | Growth Rate [1, 5]: 0
OCCn1cc(-c2ccc3c(c2)CCC3=NO)c(-c2ccncc2)n1 | 0 |  | 1 | 0 | 0 | 1 |  | 1 | 1 | 1 | 0 |  | 1 | 1 | 1 |  | 1 | 1 | 0 | 0 | Growth Rate [1, 12]: 1; Growth Rate [1, 11]: 1; Growth Rate [2, 12]: 0
CCCCC#Cc1nc(NC)c2ncn([C@@H]3O[C@H](CO)[C@@H](O)[C@H]3O)c2n1 | 0 | 0 | 0 | 0 | 0 | 0 |  | 1 | 1 | 1 | 0 | 1 | 1 | 1 | 1 |  | 0 |  |  |  | Growth Rate [1, 10]: 1; Growth Rate [1, 13]: 1; Growth Rate [1, 12]: 1; Growth Rate [1, 11]: 1; Growth Rate [2, 13]: 0
Cc1cc2c(cc1C1(c3ccc(C(=O)O)cn3)CC1)C(C)(C)CCC2(C)C | 0 | 1 | 1 | 1 | 0 | 0 |  | 1 | 1 | 1 | 1 | 0 | 0 | 1 | 0 | 1 |  | 1 |  |  | Growth Rate [1, 13]: 0; Growth Rate [1, 12]: 0; Growth Rate [3, 5]: 0
CC(C)C[C@H](NC(=O)N1CCCCCC1)C(=O)N[C@H](Cc1cn(C)c2ccccc12)C(=O)N[C@H](Cc1ccccn1)C(=O)O | 0 | 0 | 0 | 1 | 1 | 0 | 1 |  | 1 | 1 | 0 |  |  | 1 | 1 | 0 |  | 0 | 0 |  | Growth Rate [1, 10]: 1; Growth Rate [1, 13]: 1; Growth Rate [2, 13]: 1
COc1cc(C#N)ccc1S(=O)(=O)Nc1ccc2c(c1)cc(C)c(=O)n2C | 1 | 0 | 0 | 0 | 0 | 0 | 1 | 0 | 0 | 0 |  | 1 | 0 | 0 | 1 | 0 | 0 | 0 |  |  | Growth Rate [1, 12]: 1; Growth Rate [2, 13]: 1; Growth Rate [2, 12]: 1; Growth Rate [2, 11]: 1; Growth Rate [3, 5]: 0
CCCOc1ccn2c(C(C)=O)cc(-c3cccc(OC)c3)c2c1 | 0 |  |  |  |  | 0 |  | 1 | 1 | 1 | 0 |  |  |  | 1 |  | 0 | 0 | 1 | 0 | Growth Rate [1, 11]: 1
C/C(=C/C=C/C(C)=C/C(=O)O)c1cc(C(C)(C)C)cc(C(C)(C)C)c1OCC(F)F | 0 | 0 | 0 | 0 | 0 | 0 |  | 1 | 1 | 1 | 0 | 0 | 0 | 0 | 0 |  |  |  |  | 1 | 
CC(C)c1ccc(CC(=O)N2CCC[C@@H](c3cccc(OC(C)(C)C(=O)O)c3)C2)cc1 | 1 | 0 | 1 | 0 | 0 | 0 | 0 |  | 1 | 1 |  | 0 | 1 | 0 | 0 |  |  |  | 0 |  | Growth Rate [1, 5]: 0; Growth Rate [1, 10]: 1; Growth Rate [1, 11]: 1; Growth Rate [2, 13]: 1
CCOP(=O)(OCC)C(=Cc1cc(C(C)(C)C)c(O)c(C(C)(C)C)c1)P(=O)(OCC)OCC | 0 |  | 0 | 0 | 0 | 1 | 0 | 0 | 0 | 0 |  | 0 | 0 | 0 | 0 |  |  |  |  | 1 | Growth Rate [1, 10]: 0; Growth Rate [2, 5]: 0
CCc1cc(Nc2nccc(-c3c(-c4ccc(OC)c(C(=O)Nc5c(F)cccc5F)c4)nc4ccccn34)n2)c(OC)cc1N1CCC(N2CCN(S(C)(=O)=O)CC2)CC1 | 1 | 0 | 0 | 0 | 0 |  |  | 1 | 1 | 1 | 1 | 1 | 1 | 1 | 1 | 0 | 1 | 0 | 0 | 0 | Growth Rate [1, 5]: 0; Growth Rate [1, 13]: 1; Growth Rate [1, 11]: 1; Growth Rate [2, 12]: 0
Cc1cc2c(cc1-c1cc(/C=C/C(=O)O)ccc1O)C(C)(C)CCC2(C)C | 0 | 1 | 1 | 1 | 1 | 0 | 0 | 1 | 1 | 1 | 0 |  | 1 | 1 | 1 |  |  |  |  |  | Growth Rate [2, 13]: 0; Growth Rate [2, 12]: 0
C/C(=N\NC(=O)[C@@H]1C(=O)NC[C@H]1c1ccccc1)c1cccc(Br)c1 | 1 | 0 | 0 | 0 | 0 | 0 |  | 1 | 0 | 0 | 1 | 0 | 0 | 0 | 1 | 0 | 0 |  |  |  | Growth Rate [1, 5]: 0; Growth Rate [2, 13]: 0
COc1cc(OC)c(NC(=O)c2ccc(Cc3cc4c(cc3C)C(C)(C)CCC4(C)C)o2)c(OC)c1 | 1 | 0 | 0 | 0 | 0 | 0 | 1 | 1 | 1 | 0 | 0 | 0 |  | 1 | 1 |  |  |  | 1 |  | Growth Rate [1, 5]: 0; Growth Rate [1, 10]: 1
Cc1c(C2=CCN(C(=O)N(C)C(C)C)CC2)nnn1-c1cccnc1F | 0 | 1 | 1 | 0 | 1 | 0 | 0 | 1 | 1 | 1 | 1 | 0 | 0 | 0 | 0 | 1 |  |  | 1 | 1 | Growth Rate [1, 12]: 1; Growth Rate [3, 5]: 0
